Test results taken from patent publication US20090076067A1, “PHARMACEUTICAL COMPOSITION COMPRISING AZARHODACYANINE COMPOUND AS ACTIVE INGREDIENT” (priority 2005, published 2009).

Key:
[1] = tested on: Plasmodium Falciparum k1 strain; assay: Chloroquine-resistant tropical malaria protozoa proliferation inhibition screening test; format: cell-based; conditions: for Selective toxicity: EC50 rat L6 cells / EC50 Chloroquine-resistant malaria protozoa; for EC50: Plasmodium falciparum, chloroquine-resistant K1 strain, 3H-hypoxanthine uptake, read-out: EC50 P. falciparum K1
Procedure: In this experiment, Plasmodium Falciparum k1 strain protozoa were used. The medium used in the experiment was filter-sterilized RPMI-1640 medium. To the medium human serum was added to achieve 5% concentration. The protozoa was cultured under condition of O2 concentration 3%, CO2 concentration 4%, N2 concentration 93%, and temperature 37° C.
The cultured malaria infected red blood cells were collected by centrifugation, diluted with non-infected red blood cells, to achieve initial infection rate 0.15%. The hematocrit was 2.5%.
To each well in a 96-well culture plate, 200 μL malaria infected culture was added, and either test solution containing test compound at predefined concentration or DMSO having no test compound was added. Each test solution was prepared in duplicate. After 48 hours culture under 37° C., hypoxanthine labeled with radioactive tritium (^3H) of 0.5 μCi was added to each well. After culturing under same condition for 24 hours, the product was collected on a glass fiber filter and washed. The intensity of radiation was measured by Beta plate liquid scintillation counter (Wallac Inc.), to determine malaria protozoa infection rate in test compound samples and control samples.
Using the malaria protozoa infection rate, the proliferation inhibition rate was calculated according to the following equation to determine 50% proliferation inhibition concentration (EC50).
(§1) Proliferation inhibition rate(%)={1−(b−a)/(c−a)}×100
(§2) a: initial infection rate b: infection rate of test compound solution c: infection rate of the control

[2] = Rat L6 cell proliferation inhibition test; format: cell-based; conditions: L6 cells (rat skeletal myoblasts), Table 1, Alamar Blue, read-out: EC50 cytotoxicity L6
Procedure: Rat-derived L6 cells (rat skeletal myoblast cell) were used for this test. […] The sample was cultured under CO2 concentration 5% and temperature 37° C. Either the composition of the invention or control was dissolved into DMSO, to prepare test solutions having predefined concentration.
The samples were precultured until logarithmic growth phase was reached. Then the culture was transferred to each well in a 96-well culture plate, and either test solution containing test compound at predefined concentration or DSMO without compound was added. The test solution was duplicated.
The plate was cultured in an incubator for 72 hours, to examine proliferation inhibition activity. The activity was examined as follows. Alamar Blue water solution 10 μL was added to each well, and culture was continued for 2 hours. Next, the culture plate was mounted on a fluorescence microplate reader (Spectramax Gemeni XS; Molecular Devices Corporation, U.S.), and irradiated with excitation wavelength 536 nm to determine fluorescence at 588 nm. The survival rate of L6 cells in the test solution sample and control sample was calculated.
Proliferation inhibition rate(%)={(C−A)/(B−A)}×100
A: Initial cell count B: Cell count in control after 3 days C: Cell count in test solution after 3 days

[3] = tested on: Trypanosoma brucei rhodensiense (STIB 900 strain); assay: African trypanosoma protozoa proliferation inhibition screening test; format: cell-based; conditions: for Selective toxicity: EC50 rat L6 cells / EC50 African trypanosoma protozoa; for EC50: Trypanosoma brucei, STIB900, STIB 900 bloodstream form, 72 hours, Alamar blue, read-out: EC50 Trypanosoma brucei rhod.
Procedure: In this experiment, bloodstream form trypomastigote of Trypanosoma brucei rhodensiense (STIB 900 strain) was used. The medium used in the experiment was prepared as follows: to filter-sterilized MEM medium, 25 mM N-2-hydroxyethylpiperazine-2-ethane sulfonate (HEPES), 1 g/L glucose, 1% MEM nonessential amino acid, 0.2 mM 2-mercaptoethanol, 2 mM pyruvic calcium salt, 0.1 mM hypoxanthine, and 15% heat-treated horse serum were added. The protozoa was cultured under atmosphere of CO2 concentration 5% and temperature 37° C.
Either the compound of the invention or a positive control (melarsoprol) was dissolved into dimethylsulfoxide (DMSO) to prepare test solution having predefined concentration. To each well in a 96-well culture plate, medium containing 8×10^3 protozoa, and either test solution containing the test compound at predefined concentration or DMSO without compound was added. Then medium was added to achieve 100 μL. The test solution was duplicated.
The culture plate was cultured in an incubator for 72 hours, and the proliferation inhibition activity was examined. The activity was determined as follows. To each well, 10 μL Alamar blue water solution was added, then the plate was again cultured for 2 hours. Then the culture plate was mounted on a fluorescence microplate reader (Spectramax Gemeni XS; Molecular Devices Corporation, U.S.), and irradiated with 536 nm excitation wavelength to determine fluorescence at 588 nm. The trypanosoma infection rate of the sample containing the test composition and that of the control sample was calculated.
(§3) Using the protozoa infection rate thus obtained, the proliferation inhibition rate was calculated according to the following equation to determine 50% proliferation inhibition concentration (EC50).
as §1
(§4) a: initial infection rate b: infection rate of the test compound solution c: infection rate of the control

[4] = tested on: Trypanosoma cruzi (Tulahuen C2C4 strain); assay: American trypanosoma protozoa proliferation inhibition screening test; format: cell-based; conditions: for Selective toxicity: EC50 rat L6 cells / EC50 American trypanosoma protozoa; for EC50: Trypanosoma cruzi, Tulahuen C2C4 strain in rat L6 cells, 96 hours, CPRG/Nonidet, read-out: EC50 Trypanosoma cruzi
Procedure: In this experiment, amastigote and trypomastigote of Trypanosoma cruzi (Tulahuen C2C4 strain) infected to rat L6 cells were used. The medium used in the experiment was prepared as follows: to RPMI 1640 medium containing L6 cells, L-glutamine (200 mM) and fetal bovine serum was added to achieve concentration of 1% and 10%, respectively. The culture was conducted under CO2 concentration 5% and temperature 37° C.
Either the compound of the invention or a positive control (benznidazole) was dissolved into DMSO to prepare test solution having predefined concentration. To each well in a 96-well culture plate, medium containing 5×10^3 protozoa was added and precultured for 48 hours. After replacing the medium, either the test solution containing compound of the invention in predefined concentration or DMSO without compound was added. The test solution was duplicated.
The plate was cultured in an incubator for 96 hours, and the proliferation inhibition activity was examined. The activity was determined as follows. To each well, 50 μL CPRG/Nonidet was added, then left for 2 to 6 hours. Then the culture plate was mounted on an absorption microplate reader to determine absorption at 540 nm. The trypanosoma infection rate of the sample containing the test compound and that of the control sample was calculated.
as §3, §1, §4

[5] = tested on: Leishmania donovani (MHOM/ET/67/L82 strain); assay: Leishmania protozoa proliferation inhibition screening test; format: cell-based
Procedure: In this experiment, Leishmania donovani (MHOM/ET/67/L82 strain) was used. The protozoa were successively cultured in Syrian Golden hamsters to obtain amastigote. The medium used in the experiment was SM medium having heat-treated fetal bovine serum 10% added, and pH prepared to 5.4. The culture was conducted under CO2 concentration 5% and temperature 37° C.
Either the compound of the invention or a positive control (miltefosine) was dissolved into DMSO to prepare test solution having predefined concentration. To each well of a 96-well culture plate, medium containing predetermined number of protozoa was added and the culture was pre-treated. The concentration of amastigote was determined by CASY cell analyze system (Scharfe GMBH Co., Germany). Subsequently, either test solution containing compound of the invention in predefined concentration or DMSO without compound was added. The test solution was duplicated.
The plate was cultured in an incubator for 72 hours, and the proliferation inhibition activity was examined. The activity was determined as follows. To each well, 10 μL Alamar blue aqueous solution was added, then cultured again for 2 hours. Then the culture plate was mounted on a fluorescence microplate reader (Spectramax Gemeni XS; Molecular Devices Corporation, U.S), and irradiated 536 nm excitation wavelength to determine […] at 588 nm. The leishmania infection rate of the sample containing the test compound and that of the control sample was calculated.
as §3, §1, §2

[6] = tested on: Plasmodium berghei NK 65 strain; assay: animal or person; format: in vivo
Description: For a test to evaluate therapeutic effect of the compound, 4-day suppressive test which is commonly used for in vivo test to evaluate activity of anti-malaria compound was used. In this experiment, rodent malaria protozoa (Plasmodium berghei NK 65 strain) were used. The infected blood was collected from 5-weeks age (SPF) ICR strain male mouse which were infected intraperitoneally and successively cultured. From the caudal vein of the infected mouse, blood was collected to calculate infection rate. After confirming that infection rate was adequately elevated (10% to 20% infection), the malaria infected blood was collected from the heart of the mouse. The infection rate and count of the red blood cells (cells/mL) were calculated. The infected red blood cell was diluted with PBS buffer to achieve […] protozoa per 0.2 mL dose. The infected cells were injected to the caudal vein of uninfected mouse (ICR strain, male, 5-weeks age) to cause infection. Five mice were made into one group, and the test compound was administered in predefined concentration. From 2 hours after infection, the compound was administered every 24 hours for straight 4 days.
The compound of the invention to be used in this test was dissolved in saline (Otsuka Pharmaceutical Co., Ltd.) to obtain test solution of predefined concentration. When the compound was not dissolved in saline, it was dissolved in SSV (saline containing 0.5% sodium=carboxymethyl cellulose, 0.5% benzyl alcohol, 0.4% Tween 80) to prepare test solution. For the control group (non-treatment group), only saline (Otsuka) was administered. Positive controls S-1 to S-5 were dissolved in saline (Otsuka) or SSV in predetermined concentration to prepare test solution. When the compound was not dissolved in saline, it was dissolved in SSV. After measuring weight of each mouse, the dose for each mouse was calculated to achieve 5.0 to 40 mg concentration for weight1 kg.
Five mice were made into one group, and the test compound was administered intraperitoneally at predefined concentration. From 2 hours after infection, the compound was administered every 24 hours for straight 4 days. Subsequent to the 24 hours after last treatment, blood was collected from the tail of the mouse to prepare thin layer smear in order to count malaria protozoa infection in the treatment group and the control group under microscope. The mice showing maximum value and minimum value were excluded from the average calculation (average was calculated for three mice), to determine malaria protozoa infection rate (Parasitemia).
Using malaria protozoa infection rate thus calculated, recovery rate obtained from the test compound (suppression) was determined.
Recovery rate: suppression(%)=(b−a)/b×100 a: Protozoa infection rate in the treatment group b: Protozoa infection rate in the control group Mean survival days: MSD(day)=c−d c: Average days from the initial treatment (date of malaria infection) to the date of death for the treatment group (5 mice) d: Average days from the date of malaria infection to the date of death for the non-treatment (control) group (5 mice) […]
Tables 5 to 7 illustrate the recovery rate (%) and survival days (day) of malaria infected mice treated with intraperitoneal injection of the test compound and the control compound at predefined concentration. The meaning of symbols in the table is as follows.

Structure (SMILES)	Selective toxicity [1]	EC50 [1] [µg/mL]	EC50 at 72 h [2] [µg/mL]	Selective toxicity [3]	EC50 [3] [µg/mL]	Selective toxicity [4]	EC50 [4] [µg/mL]	Selective toxicity ([5]; EC50 rat L6 cells / EC50 leishmania protozoa)	EC50 ([5]; Leishmania donovani, amastigote, 72 hours, Alamar blue, read-out: EC50 Leishmania donovani) [µg/mL]	inhibition in vivo at 25 mg/kg/day ([6]; Plasmodium berghei, ip, 96 h, read-out: Recovery Rate (suppression)) [%]	Survival days (mean survival days, treatment group minus control group) ([6]; dose 25 mg/kg/d intraperitoneally, 4 days) [days]
CCN1C(=O)/C(=c2\nc3c(s2)=CC=CN3C)S/C1=N\c1scc[n+]1C.[Cl-] [Compound A-20]	2211	0.011	24.3	256	0.095	32	0.763	–	–	–	–
CCN1C(=O)/C(=c2\nc3c(s2)=CC=CN3C)S/C1=N\c1sc2ccccc2[n+]1C.[Cl-] [Compound A-21]	3005	0.002	6.01	207	0.029	41	0.145	18	0.343	–	–
CCn1c(=O)/c(=C2\C=CC=CN2C)s/c1=C1\S/C(=N\c2sc3cc(Cl)ccc3[n+]2C)N(C(C)C)C1=O [Compound B-36]	1165	0.009	10.5	85	0.123	–	–	–	–	95.5	1.7
